We go through 10 molecules from patent US11708348B2, “Protease inhibitors for treatment of coronavirus infections” (The Scripps Research Institute, priority 2021, dated 2023).

Assay [1] relates to SARS-CoV-2 strain USA-WA1/2020. Kind of assay: microbe, parasite or virus in culture. It is filed as cell-based. To be noted: HeLa-ACE2 cells, SARS-CoV-2 infection, 24 h, read-out: EC50, uM (Hela).
For assay [2], the system named is hospitalized COVID-19 patients. As to conditions: large multi-center trial; cited from earlier work.
In assay [3] the target is COVID-2 M^pro protease (Severe acute respiratory syndrome coronavirus 2, UniProt P0DTD1). To be noted: cell and enzyme assays; cited from earlier work.
Setting [4] is: Severe acute respiratory syndrome coronavirus 2, HeLa-ACE2, 24 h.

Like-named read-outs stand apart in the source and are kept apart here.

Consider `O=C1NCC[C@H]1C[C@H](NC(=O)[C@@H]1[C@H]2CCC[C@H]2CN1C(=O)c1noc2cc(Cl)ccc12)C(=O)COC(F)(F)F` [Compound 783, (1S,3aR,6aS)-2-(6-chlorobenzo[d]isoxazole-3-carbonyl)-N-((S)-3-oxo-1-((S)-2-oxopyrrolidin-3-yl)-4-(trifluoromethoxy)butan-2-yl)octahydrocyclopenta[c]pyrrole-1-carboxamide], for which the EC50 in assay [1] (setting [4]) was < 0.05 µM.

For `O=C1NCC[C@H]1C[C@H](NC(=O)[C@@H]1C[C@@H](C(F)(F)F)CN1C(=O)[C@@H](O)c1ccccc1)C(=O)COC(F)(F)F` [Compound 785, (2S,4R)-1-((S)-2-hydroxy-2-phenylacetyl)-N-((S)-3-oxo-1-((S)-2-oxopyrrolidin-3-yl)-4-(trifluoromethoxy)butan-2-yl)-4-(trifluoromethyl)pyrrolidine-2-carboxamide], in assay [1] (setting [4]), the EC50 is 0.05 to 0.2 µM.

With `O=C1NCC[C@H]1C[C@H](NC(=O)[C@@H]1C[C@@H](c2ccccc2)CN1C(=O)[C@H](O)c1ccccc1)C(=O)COC(F)(F)F` [Compound 786, (2S,4S)-1-((R)-2-hydroxy-2-phenylacetyl)-N-((S)-3-oxo-1-((S)-2-oxopyrrolidin-3-yl)-4-(trifluoromethoxy)butan-2-yl)-4-phenylpyrrolidine-2-carboxamide], the EC50 in assay [1] (setting [4]) is 0.05 to 0.2 µM.

Take `CC(C)C[C@@H](O)C(=O)N1[C@H](C(=O)N[C@@H](C[C@@H]2CCNC2=O)C(=O)COC(F)(F)F)CCC1(C)C` [Compound 787, (S)-1-((R)-2-hydroxy-4-methylpentanoyl)-5,5-dimethyl-N-((S)-3-oxo-1-((S)-2-oxopyrrolidin-3-yl)-4-(trifluoromethoxy)butan-2-yl)pyrrolidine-2-carboxamide]: the 50% effective concentration (EC50) in assay [1] (setting [4]) lay in the range of 0.05 to 0.2 µM.

For the molecule `CC(C)C[C@H](NC(=O)C(=O)Nc1ccccc1F)C(=O)N[C@@H](C[C@@H]1CCNC1=O)C(=O)COc1ccnc(C(F)(F)F)n1` [Compound 788, N^1-(2-fluorophenyl)-N^2—((S)-4-methyl-1-oxo-1-(((S)-3-oxo-1-((S)-2-oxopyrrolidin-3-yl)-4-((2-(trifluoromethyl)pyrimidin-4-yl)oxy)butan-2-yl)amino)pentan-2-yl)oxalamide], the EC50 in assay [1] (setting [4]) is 0.2 to 0.5 µM.

Consider `CC(C)C[C@H](NC(=O)C1CC2(CC2)CO1)C(=O)N[C@@H](C[C@@H]1CCNC1=O)C(=O)COC(F)(F)F` (stereo partly drawn) [Compound 789, N-((S)-4-methyl-1-oxo-1-(((S)-3-oxo-1-((S)-2-oxopyrrolidin-3-yl)-4-(trifluoromethoxy)butan-2-yl)amino)pentan-2-yl)-5-oxaspiro[2.4]heptane-6-carboxamide], for which the EC50 in assay [1] (setting [4]) is < 0.05 µM.

Regarding `CCN(CCO)CCCC(C)Nc1ccnc2cc(Cl)ccc12` (stereo not shown) [hydroxychloroquine], the “mortality of hospitalized COVID-19 patients” value in assay [2] was “failed to reduce mortality”.

For `Cc1cccc(C)c1OCC(=O)N[C@@H](Cc1ccccc1)[C@@H](O)C[C@H](Cc1ccccc1)NC(=O)[C@H](C(C)C)N1CCCNC1=O` [lopinavir], the “mortality of hospitalized COVID-19 patients” value in assay [2] was “failed to reduce mortality”.

In the case of `COCC(=O)[C@H](C[C@@H]1CCNC1=O)NC(=O)[C@H](CC(C)C)NC(=O)c1cc2c(OC)cccc2[nH]1` [methyl ether of PF-00835231], the “fold less active than PF-00835231” value in assay [3] is on record as 3-5 fold.

Take “(S)-4-methyl-2-((l- methyl-1H-indole)-5- sulfonamido)-N-((S)- 3-oxo-1-((S)-2- oxopyrrolidin-3-yl)-4- (trifluoromethoxy)butan- 2-yl)pentanamide [Compound 463]”: the EC50 in assay [1] lay in the range of 0.2 to 0.5 µM.
